{
  "source": "the METLIN SMRT retention time set (Domingo-Almenara et al. 2019)",
  "data": [
    {"test": "gradient 5% acetonitrile 3 min, to 50% in 2 min, to 85% in 15 min, held 3 min, 100 µL/min", "details": "column: Zorbax Extend-C18 2.1 x 50 mm; eluents: water / acetonitrile, 0.1% formic acid", "method_in_brief": "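Each retention time is based on an adduct peak selected computationally and verified by manual inspection. Measurements used HPLC–quadrupole time-of-flight mass spectrometry in positive and negative ionization mode on mixtures of ~100 pure standards. Chromatography ran on a Zorbax Extend-C18 column (2.1 × 50 mm, 1.8 μm) at 100 μL/min with water and acetonitrile, each containing 0.1% formic acid, and dead and dwell volumes of 40 μL and 900 μL.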", "units": {"RP-LC retention time": "s"}, "values": [
      {"smiles": "Cc1noc(C2CN(C(=O)CCCc3ccccc3)CC23CCOCC3)n1", "note": "(configuration not stated)", "RP-LC retention time": 736},
      {"smiles": "O=C(CC1CSc2ccccc2NC1=O)NC1CCCCCC1", "note": "(configuration not stated)", "RP-LC retention time": 822},
      {"smiles": "O=C(CN1C(=O)CCc2cc(Br)ccc21)NCc1cccnc1", "RP-LC retention time": 614},
      {"smiles": "CCOc1ccc(CN(C(=O)Cc2coc3ccc(CC)cc23)C2CCS(=O)(=O)C2)cc1", "note": "(configuration not stated)", "RP-LC retention time": 1050},
      {"smiles": "Cc1ccc(NC(=O)NCC2(N3CCOCC3)CCOC2)cc1C", "note": "(configuration not stated)", "RP-LC retention time": 615},
      {"smiles": "CCn1ccc2sc(C)c(C(=O)NCc3c(C)cc(C)cc3C)c2c1=O", "RP-LC retention time": 982},
      {"smiles": "CCCCCn1c(=O)c2ccccc2n(Cc2nc(-c3ccc(OC(F)(F)F)cc3)no2)c1=O", "RP-LC retention time": 739},
      {"smiles": "COc1ccc(-c2nnc(Cc3nc(-c4cccs4)no3)o2)cc1", "RP-LC retention time": 913},
      {"smiles": "Cc1cccc(NC(=O)NCCn2c(C(F)(F)F)nc3cccnc32)c1", "RP-LC retention time": 761},
      {"smiles": "COc1ccc(C(=O)N2CC(n3cc(COCC4CC4)nn3)C2)c(OC)c1", "RP-LC retention time": 705},
      {"smiles": "O=C(NCc1ccccc1F)C1CCN(c2cncnc2N2CCOCC2)CC1", "RP-LC retention time": 611},
      {"smiles": "Cc1ccccc1NC(=O)Nc1c(-c2ccc(F)cc2)nc2ccccn12", "RP-LC retention time": 661},
      {"smiles": "CCc1onc(C)c1C1CCCN1C(=O)NCc1ccc(F)cc1", "note": "(configuration not stated)", "RP-LC retention time": 766},
      {"smiles": "COc1cc(Cl)c(NC(=O)C2CCCN(c3nccnc3Sc3ccc(C)cc3)C2)c(OC)c1", "note": "(configuration not stated)", "RP-LC retention time": 1260},
      {"smiles": "CCS(=O)(=O)c1nc2ccc(NS(=O)(=O)c3ccc(F)cc3Cl)cc2s1", "RP-LC retention time": 890},
      {"smiles": "COC(=O)CNC(=O)Nc1ccc2nc(-c3ccccc3)cc(OC)c2c1", "RP-LC retention time": 629},
      {"smiles": "CC1CCCN(c2ccc(-c3noc(CN4CCN(c5ccccc5)CC4)n3)cn2)C1", "note": "(configuration not stated)", "RP-LC retention time": 1010},
      {"smiles": "Clc1ccc(-c2noc(Cc3nc(-c4ccccc4)cs3)n2)cc1", "RP-LC retention time": 1290},
      {"smiles": "Cc1ccc(N2CCN(S(=O)(=O)c3cc(-c4nnc(C5CCC5)o4)co3)CC2)cc1", "RP-LC retention time": 1110},
      {"smiles": "OC(CN1CCN(c2ccccn2)CC1)c1ccc(Cl)cc1", "note": "(configuration not stated)", "RP-LC retention time": 563},
      {"smiles": "CC1(C(=O)NCc2ccc(F)cc2)CCCN(C(=O)Nc2ccc(F)cc2)C1", "note": "(configuration not stated)", "RP-LC retention time": 887},
      {"smiles": "O=C(c1ccc(OCC2CCCN2C(=O)CC2CCCCC2)cc1)N1CCOCC1", "note": "(configuration not stated)", "RP-LC retention time": 829},
      {"smiles": "COc1cccc(N2CCN(S(=O)(=O)c3cc(-c4csc(C)n4)ccc3C)CC2)c1", "RP-LC retention time": 1190},
      {"smiles": "COc1ccc(F)cc1S(=O)(=O)N1C[C@@H](F)C[C@H]1C(=O)N1CCc2ccccc2C1", "RP-LC retention time": 881},
      {"smiles": "COc1ccc2cc(C(=O)N3CCN(c4cc(=O)n(C(C)C)c(=O)n4C(C)C)CC3)[nH]c2c1", "RP-LC retention time": 909},
      {"smiles": "CCNC(=O)N1CC(Oc2ccc(-c3nc(-c4ccccc4)no3)cc2)C1", "RP-LC retention time": 945},
      {"smiles": "Cc1cc(C)cc(NC(=O)Nc2ccc3nnc(C)n3c2)c1", "RP-LC retention time": 661},
      {"smiles": "O=C(c1nnc(-c2ccc(S(=O)(=O)N3CCCCC3)cc2)o1)N1CCC2(CC1)OCCO2", "RP-LC retention time": 884},
      {"smiles": "Cc1ccccc1NC(=O)C1CCc2nc(N3CCCCC3)ncc2C1", "note": "(configuration not stated)", "RP-LC retention time": 688},
      {"smiles": "O=C(Cc1ccccc1)NCc1nc(-c2ccc(-c3csc(C4CC4)n3)cc2)no1", "RP-LC retention time": 1040},
      {"smiles": "CN(C)C(=O)c1cc2c(s1)CCC(C(=O)N1CCN(c3ccccn3)CC1)C2", "note": "(configuration not stated)", "RP-LC retention time": 570},
      {"smiles": "Cc1nc2cc(N3CC(C(=O)N4CCN(c5ccc(F)cc5)CC4)CC3=O)ccc2o1", "note": "(configuration not stated)", "RP-LC retention time": 749},
      {"smiles": "O=C(Nc1cccc(NC(=O)c2cccc(O)c2O)c1)c1cccc(O)c1O", "RP-LC retention time": 765},
      {"smiles": "O=[N+]([O-])c1ccc2c(c1)S(=O)c1ccccc1-2", "note": "(configuration not stated)", "RP-LC retention time": 782},
      {"smiles": "COc1ccc(F)cc1-c1cc(NC(=O)[C@@H]2CCCNC2)ncc1Cl", "RP-LC retention time": 737},
      {"smiles": "O=C(CSc1nnnn1-c1ccccc1)c1ccc(Cl)c(Cl)c1", "RP-LC retention time": 1060},
      {"smiles": "Cc1ccc(OCC(O)Cn2c(C3CC3)nc3ccccc32)cc1", "note": "(configuration not stated)", "RP-LC retention time": 697},
      {"smiles": "COc1ccccc1CCC(=O)NC1(c2nc(-c3cccnc3)no2)CCCCC1", "RP-LC retention time": 956},
      {"smiles": "CN1CCN(CCNC(=O)c2ccc3ccnc(N4CCN(c5ccc(F)cc5)CC4)c3c2)CC1", "RP-LC retention time": 580},
      {"smiles": "CCCNC(=O)N1CCCCCC1CN1CCOCC1", "note": "(configuration not stated)", "RP-LC retention time": 580},
      {"smiles": "COCCN1C(=O)c2cc(-c3ccc(OC)cc3)nn2CC1(C)C(=O)NCc1ccccc1", "note": "(configuration not stated)", "RP-LC retention time": 834},
      {"smiles": "Cc1ccc(N2C(=O)C3N=NN(Cc4nc(-c5cccc(C(F)(F)F)c5)no4)C3C2=O)cc1", "note": "(configuration not stated)", "RP-LC retention time": 1080},
      {"smiles": "Cc1ccc(NC(=O)C2CCCN(c3ncnc4c3oc3ccccc34)C2)cc1", "note": "(configuration not stated)", "RP-LC retention time": 825},
      {"smiles": "Cc1ccc(-c2cn3c(CC(=O)NCc4ccccc4)csc3n2)cc1C", "RP-LC retention time": 826},
      {"smiles": "CS(=O)(=O)N(C1CCOCC1)C1CN(C(=O)Nc2ccccc2F)C1", "RP-LC retention time": 670},
      {"smiles": "COc1ccc(Cc2nc(-c3ccc4c(c3)ncn4CCC(=O)N3CCCC3)no2)cc1", "RP-LC retention time": 716},
      {"smiles": "CN1C(=O)COc2cc(-c3noc(C(=O)NC4CC4)n3)ccc21", "RP-LC retention time": 718},
      {"smiles": "CCS(=O)(=O)N1CC(=O)N(c2ccc(C)cc2C)C(C)(C(=O)NC2CCCCCC2)C1", "note": "(configuration not stated)", "RP-LC retention time": 1000},
      {"smiles": "CN(C)S(=O)(=O)c1cc2c(cc1N1CCN(c3ccccn3)CC1)Oc1ccccc1NC2=O", "RP-LC retention time": 639},
      {"smiles": "COCCC1CCN(C(=O)c2cc(F)ccc2F)CC1", "RP-LC retention time": 749},
      {"smiles": "CCOc1ccc(CNC(=O)C2CCN(c3cncnc3N3CCOCC3)CC2)cc1", "RP-LC retention time": 635},
      {"smiles": "COc1ccc(-c2csc(NC(=O)c3ccc([N+](=O)[O-])cc3)n2)cc1", "RP-LC retention time": 1070},
      {"smiles": "Cc1cccc(-c2noc(Cn3ccn(-c4cc(C)cc(C)c4)c(=O)c3=O)n2)c1", "RP-LC retention time": 925},
      {"smiles": "Cc1ccc(S(=O)(=O)N2CCC3(CC2)NCCN=C3NCc2cccc(F)c2)cc1C", "RP-LC retention time": 745},
      {"smiles": "OCc1cc2c(cn1)[nH]c1ccccc12", "RP-LC retention time": 637},
      {"smiles": "CS(=O)(=O)Nc1ccc(C2(C(=O)NCc3cccc(Cl)c3)CCCCC2)cc1", "RP-LC retention time": 948},
      {"smiles": "COc1ccc2oc(-c3noc(C4CC(=O)N(c5ccccc5)C4)n3)c(C)c2c1", "note": "(configuration not stated)", "RP-LC retention time": 1040},
      {"smiles": "CCn1cc(C(=O)NCc2ccccc2C(F)(F)F)c2cccnc21", "RP-LC retention time": 863},
      {"smiles": "O=C1CCN(C(=O)c2ccoc2)CCCCCCN1", "RP-LC retention time": 617},
      {"smiles": "COc1cccc(C(=O)Nc2cc(-c3cccnc3)no2)c1", "RP-LC retention time": 730},
      {"smiles": "CC(C)C(=O)NCC12CCC=C1N(C)C(=O)CC2", "note": "(configuration not stated)", "RP-LC retention time": 636},
      {"smiles": "O=C(Nc1ccc2nncn2c1)c1cccc(Cl)c1", "RP-LC retention time": 719},
      {"smiles": "CCOc1ccc2nc(Nc3ncc4c(n3)CC(c3cccc(Cl)c3)CC4=O)nc(C)c2c1", "note": "(configuration not stated)", "RP-LC retention time": 899},
      {"smiles": "COC(=O)c1cccc(C(=O)N2CCN(c3cc(C)ccc3C)CC2)n1", "RP-LC retention time": 959},
      {"smiles": "Cc1ccc2c(c1)N(S(C)(=O)=O)CCC(C(=O)Nc1ccc(Br)c(C)c1)O2", "note": "(configuration not stated)", "RP-LC retention time": 1090},
      {"smiles": "COc1ccc(NC(=O)c2c(C)oc3nc(C)nc(N4CCOCC4)c23)cc1OC", "RP-LC retention time": 711},
      {"smiles": "O=C(CN1C(=O)NC2(CCCCC2)C1=O)NCCc1ccc(Cl)cc1", "RP-LC retention time": 790}
    ]}
  ]
}
